Key:
chymotrypsin = chymotrypsin (Bos taurus, UniProt P00766); assay: Proteolytic stability in the presence of chymotrypsin (HPLC); details: chymotrypsin 1.0 μg/mL, peptide 10 μM
Method: This property can be assessed by incubating the macrocyclic peptidomimetic molecules and the corresponding reference non-macrocyclic polypeptides in the presence of purified proteases or, alternatively, human blood serum. The in vitro proteolytic degradation of the compounds can be then monitored over time by HPLC equipped with a UV detector. From the resulting time-dependent curves, the half-life of the compounds can be measured. As an example, the in vitro proteolytic stability of macrocycles was measured by incubating the compound (10 μM) in 50 mM potassium phosphate buffer (pH 7.5) in the presence of chymotrypsin (1.0 μg/mL) at room temperature. At different time points (e.g. 0, 30, 60, 120, 180, 240 min), an aliquot of the reaction mixture (50 μL) was removed, quenched addition of TFA (5 μL) followed by HPLC analysis. Peptide cleavage was monitored based on the decrease of the peak area corresponding to the integer peptide.
Each peptide (10 μM) was dissolved in 50 mM potassium phosphate buffer (pH 7.5) containing 150 mM NaCl and 10% DMSO. Chymotrypsin (Sigma-Aldrich) was added to a final concentration of 1.0 μg/mL and incubated at room temperature. At each time point, a 50 μL aliquot of the mixture was removed, quenched by TFA addition (5 μL) followed by HPLC analysis. Peptide cleavage was monitored based on the decrease of the peak area corresponding to the integer peptide. […]

[1] = Circular dichroism analysis of α-helicity; details: 5 mM potassium phosphate pH 7.0, 40% trifluoroethanol
Method: The alpha helical content of the macrocyclic peptidomimetic molecules and reference non-macrocyclic compounds disclosed herein can be determined by Circular Dichroism (CD) spectroscopy.
CD spectra were recorded with a JASCO J-710 CD spectropolarimeter using a 0.1 cm path length cuvette at room temperature. The purified peptides were dissolved in 5 mM potassium phosphate buffer (pH 7.0) containing 40% trifluoroethanol to a final concentration of 20-50 μM. […] The bandwidth was set to 2.0 nm and the sensitivity of the spectrometer set to 100 mdeg.

HEK-293 cells = assay: Cell penetration by confocal fluorescence microscopy; type: cell-based, human; details: fluorescein-conjugated compound, 20 μM, 2 h
Method: In some embodiments, the macrocyclic peptidomimetics described herein are more cell permeable than a corresponding non-macrocyclic counterpart. […] To measure the cell permeability of these compounds, intact cells are incubated with fluorescently labeled (e.g. fluorescein-conjugated) macrocyclic peptidomimetic molecule or corresponding non-macrocyclic counterpart (10 μM) for 4 hrs in serum free media at 37° C. Cells are then washed twice with media, incubated with trypsin (e.g. 0.25% trypsin, 10 min, 37° C.), then washed again and resuspended in PBS. Cellular fluorescence is analyzed, for example, by using a FACSCalibur flow cytometer. Alternatively, the ability of the fluorescently labelled compound to penetrate cells can be assessed by confocal fluorescence microscopy.
Similar results were obtained for other p53 macrocyclic peptidomimetic molecules described in FIG. 10.
The cell permeability properties of the macrocyclic peptidomimetics and reference linear peptides were assessed using HEK-293 cell line. These cells were cultured in the DMEM medium supplemented with 10% fetal bovine serum and penicillin/streptomycin. For the cell permeability evaluations, cells were seated overnight (1×10^4 cells/well) in 24-well tissue culture treated plates with glass bottom. […]

SJSA-1 cells = assay: Cell viability (MTT) assay in SJSA-1 osteosarcoma cells; type: cell-based, human; details: overnight treatment
Method: The cytotoxic activity of the macrocyclic peptidomimetic molecules is determined, for example, in cell-based assays using tumorigenic and non-tumorigenic cell lines and primary cells derived from human or mouse cell populations. […]. Such assays can be used to assess the efficacy of the macrocyclic peptidomimetic molecules to reduce the viability of tumorigenic and non-tumorigenic cells. In addition, assays that measure Annexin V and caspase activation can be optionally used to assess whether the cytotoxicity of the macrocyclic peptidomimetic molecules is dependent upon activation of the apoptotic machinery, which is expected to result from reactivation of p53 activity.
Similar results were obtained for other p53 macrocyclic peptidomimetic molecules described in FIG. 10, resulting in LD50 in the low micromolar range.
Cultured SJSA-1 cells were maintained in the RPMI-1640 medium supplemented with 10% fetal bovine serum. For viability evaluation cells were seated in 96-well, tissue culture treated plates (2×10^4 cells/well) and incubated overnight. […] The cells were treated overnight and the viability was assessed by a standard MTT (3-(4,5-dimethylthiazol-2-yl)-2,5-diphenyltetrazolium bromide) assay. The viability is expressed as percentage of viability of the non-treated cells.

[2] = test system: p53(15-29)-HDM2 interaction; assay: HDM2 IC50 (nM)
From the text: (§1) Table printed on a drawing sheet, FIG. 10
Head of the field: HDM2 IC50 (nM)
(§2) The patent's description of the figure: FIG. 10. Amino acid sequence, structure, and inhibitory activity of selected p53 macrocyclic peptidomimetics and reference linear peptides. The inhibitory activities refer to IC50 values for disruption of p53(15-29)-HDM2 interaction or p53(15-29)-HDMX interaction as determined using a Surface Plasmon Resonance-based inhibition assay.
(§3) First copying reader's note: In cyclic peptides the linker name (SP4, SP6, SP8, SP9) is printed above the sequence inside a bracket running from the pAcF/mAcF residue to the C-terminus; it is given here before the sequence.
(§4) Where the first naming reader finds the target: description_of_the_figure: IC50 values for disruption of p53(15-29)-HDM2 interaction or p53(15-29)-HDMX interaction

[3] = test system: p53(15-29)-HDMX interaction; assay: HDMX IC50 (nM)
From the text: as §1
Head of the field: HDMX IC50 (nM)
as §2, §3, §4

HDMX = target: T1, HDMX (Homo sapiens, UniProt O15151); assay: SPR inhibition assay, disruption of p53(15-29)-HDMX interaction; type: binding; details: selectivity ratio between the two protein homologs
T1 construct: His tag (C); made in house; host or cells: E. coli BL21(DE3)
T1 sequence (O15151 1-109): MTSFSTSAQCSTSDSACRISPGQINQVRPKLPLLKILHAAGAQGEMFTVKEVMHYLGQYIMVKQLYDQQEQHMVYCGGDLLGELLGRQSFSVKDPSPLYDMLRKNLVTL
From the text: The ability of the macrocyclic peptidomimetic molecules to bind a protein of interest and disrupt a target protein-protein interaction can be assessed, for example, via in vitro surface plasmon resonance (SPR)-based inhibition assays. For example, the ability of these compounds to inhibit the interaction of p53 with oncoprotein HDM2 and HDMX can be measured via an in-solution inhibition assay, in which a biotinylated p53-derived peptide (e.g., biotin-SGSG-p5315-29) is first immobilized on a streptavidin-coated biosensor chip. Soluble HDM2 (or HDMX) is then incubated with varying concentrations of the macrocycle and the mixture is then injected over the functionalized surface. With increasing concentrations of the inhibitor, binding of HDM2 (or HDMX) to the surface is inhibited, leading to a decrease in biosensor response. The response-concentration curves can be then analyzed to measure the inhibitory activity of the compounds in terms of half-maximal inhibitory concentration (IC50).
Briefly, biotin-conjugated […] peptide was first immobilized on a streptavidin-coated biosensor chip and increasing concentrations of the inhibitors were added to a fixed concentration of HDM2 or HDMX. From the corresponding dose-response curves (FIGS. 12A-12B), half-maximal inhibitory concentrations (IC50) were determined for the compounds as summarized in FIG. 10. […]

Compound	survival of incubation with the protease, up to (chymotrypsin)	α-helical content [1]	viability of SJSA-1 cells upon treatment (SJSA-1 cells)	IC50 [2] [nM]	IC50 [3] [nM]	further results
CC1=NOCc2cn(nn2)Cc2ccc(CSCC(N)=O)c(c2)NC(=O)[C@H](C)NC(=O)[C@H](CC(C)C)NC(=O)[C@H](CC(C)C)NC(=O)[C@H](CC(N)=O)NC(=O)[C@H](Cc2c[nH]c3ccccc23)NC(=O)[C@H](Cc2ccc(O)cc2)NC(=O)[C@H](CCC(=O)O)NC(=O)[C@H](C)NC(=O)[C@H](Cc2ccccc2)NC(=O)[C@H](CO)NC(=O)[C@@H](NC(=O)CN)Cc2ccc1cc2 [P7]	up to 3 hour	40%				
CC1=NOCCCNC(=O)c2ccc(CSCC(N)=O)c(c2)NC(=O)[C@H](C)NC(=O)[C@H](CC(C)C)NC(=O)[C@H](CC(C)C)NC(=O)[C@H](CC(N)=O)NC(=O)[C@H](Cc2c[nH]c3ccccc23)NC(=O)[C@H](Cc2ccc(O)cc2)NC(=O)[C@H](CCC(=O)O)NC(=O)[C@H](C)NC(=O)[C@H](Cc2ccccc2)NC(=O)[C@H](CO)NC(=O)[C@@H](NC(=O)CN)Cc2ccc1cc2 [P8]	≤ 4 h	21%	a reduction of cell viability			cellular uptake (confocal fluorescence microscopy) (HEK-293 cells): diffuse fluorescence at the intracellular level
CC1=NOCc2ccc(CS)c(c2)NC(=O)[C@H](C)NC(=O)[C@H](CC(C)C)NC(=O)[C@H](CC(C)C)NC(=O)[C@H](CC(N)=O)NC(=O)[C@H](Cc2c[nH]c3ccccc23)NC(=O)[C@H](Cc2ccc(O)cc2)NC(=O)[C@H](CCC(=O)O)NC(=O)[C@H](C)NC(=O)[C@H](Cc2ccccc2)NC(=O)[C@H](CO)NC(=O)[C@@H](NC(=O)CN)Cc2ccc1cc2 [P9]				> 50000	> 50000	
COc1ccc(C2=N[C@@H](c3ccc(Cl)cc3)[C@@H](c3ccc(Cl)cc3)N2C(=O)N2CCNC(=O)C2)c(OC(C)C)c1 [nutlin-3]			responsiveness of the cells to p53-HDM2 inhibition was confirmed			
P6: unconstrained reference linear peptide (SEQ ID NO. 44), acyclic counterpart of P7 and P8 (GYSFAEYWNLLA; Engineered Sequence)				65	355	
P6: unconstrained reference linear peptide (SEQ ID NO. 44), acyclic counterpart of P7 and P8 (GYSFAEYWNLLA; Engineered Sequence) [reference compound]		about 31%				IC50(HDMX)/IC50(HDM2) (HDMX): 5.5

Reference: patent publication US10294273B2, “Macrocyclic peptidomimetics for alpha-helix mimicry” (UNIVERSITY OF ROCHESTER, priority 2014, dated 2019)
